According to ChEMBL document CHEMBL6071200, “Discovery of Ring-Annulated Analogues of Cannabidiol as Potential Anticancer Agents: Synthesis and Biological Evaluation” (ACS Med Chem Lett, 2024):
In brackets after ≈: the same amount, converted by molar mass. Activity calls are given as the source filed them. The rule behind the calls is not given here.

Tests used:
HCT-116 [1] = test: Cytotoxicity against human HCT-116 cells assessed as inhibition of cell growth at 20 uM incubated for 48 hrs by SRB assay relative to control; assay type: functional
MCF7 [2] = test: Cytotoxicity against human MCF7 cells assessed as inhibition of cell growth at 20 uM incubated for 48 hrs by SRB assay relative to control; assay type: functional
HCT-116 [3] = test: Cytotoxicity against human HCT-116 cells assessed as inhibition of cell growth incubated for 48 hrs by SRB assay; assay type: functional, cell-based; details: HCT-116, 48 h
MCF7 [4] = test: Cytotoxicity against human MCF7 cells assessed as inhibition of cell growth incubated for 48 hrs by SRB assay; assay type: functional, cell-based; details: MCF7, 48 h
[5] = Cytotoxicity against human HEK293 cells assessed as inhibition of cell growth incubated for 48 hrs by SRB assay; assay type: toxicity, cell-based
[6] = Selectivity index, ratio of IC50 for HEK293 cells to IC50 for human HCT-116 cells; assay type: toxicity; details: HEK293 cells versus HCT-116 cells, read-out: Ratio IC50
[7] = Selectivity index, ratio of IC50 for HEK293 cells to IC50 for human MCF7 cells; assay type: toxicity; details: HEK293 cells versus MCF7 cells, read-out: Ratio IC50
MCF7 [8] = test: Induction of apoptosis in human MCF7 cells assessed as viable cells at 5.3 uM incubated for 24 hrs by Annexin V-FITC/PI staining based flow cytometric analysis (reference value: 88.20 %); assay type: functional; details: read-out: Activity
MCF7 [9] = test: Induction of apoptosis in human MCF7 cells assessed as early apoptotic cells at 5.3 uM incubated for 24 hrs by Annexin V-FITC/PI staining based flow cytometric analysis (reference value: 2.93 %); assay type: functional
MCF7 [10] = test: Induction of apoptosis in human MCF7 cells assessed as late apoptotic cells at 5.3 uM incubated for 24 hrs by Annexin V-FITC/PI staining based flow cytometric analysis (reference value: 4.85 %); assay type: functional
MCF7 [11] = test: Induction of apoptosis in human MCF7 cells assessed as necrotic cells at 5.3 uM incubated for 24 hrs by Annexin V-FITC/PI staining based flow cytometric analysis (reference value: 4.02 %); assay type: functional
MCF7 [12] = test: Inhibition of colony formation in human MCF7 cells assessed as reduction in number of colonies at subtoxic doses measured after 48 hrs by crystal violet staining based analysis; assay type: functional, cell-based
MCF7 [13] = test: Induction of ROS production in human MCF7 cells assessed as DCFDA intensity at 5.3 uM incubated for 24 hrs by flow cytometric analysis (reference value: 0.95 %); assay type: functional
MCF7 [14] = test: Induction of mitochondrial membrane loss in human MCF7 cells assessed as fold change at 5.3 uM incubated for 24 hrs by Mitotracker dye based flow cytometric analysis relative to control; assay type: functional
MCF7 [15] = test: Cell cycle arrest in human MCF7 cells assessed as accumulation of cells at G1 phase at 5.3 uM incubated for 24 hrs by PI staining based flow cytometric analysis (reference value: 63.9 %); assay type: functional
MCF7 [16] = test: Cell cycle arrest in human MCF7 cells assessed as accumulation of cells at S phase at 5.3 uM incubated for 24 hrs by PI staining based flow cytometric analysis (reference value: 22.93 %); assay type: functional
MCF7 [17] = test: Cell cycle arrest in human MCF7 cells assessed as accumulation of cells at G2/M phase at 5.3 uM incubated for 24 hrs by PI staining based flow cytometric analysis (reference value: 13.7 %); assay type: functional
MCF7 [18] = test: Anticancer activity against human MCF7 cells assessed as reduction in cell viability at 5.3 uM incubated for 48 hrs by SRB assay relative to control; assay type: functional
MCF7 [19] = test: Anticancer activity against human MCF7 cells assessed as reduction in cell viability at 5.3 uM preincubated with LY320135 for 1 hrs followed by compound addition and measured after 48 hrs by SRB assay; assay type: functional, cell-based
MCF7 [20] = test: Anticancer activity against human MCF7 cells assessed as reduction in cell viability at 5.3 uM preincubated with SR144528 for 1 hrs followed by compound addition and measured after 48 hrs by SRB assay; assay type: functional, cell-based
MCF7 [21] = test: Anticancer activity against human MCF7 cells assessed as reduction in cell viability at 5.3 uM preincubated with ML-193 for 1 hrs followed by compound addition and measured after 48 hrs by SRB assay; assay type: functional, cell-based
MCF7 [22] = test: Anticancer activity against human MCF7 cells assessed as reduction in cell viability at 5.3 uM preincubated with capsazepine for 1 hrs followed by compound addition and measured after 48 hrs by SRB assay; assay type: functional, cell-based
MCF7 [23] = test: Anticancer activity against human MCF7 cells assessed as reduction in cell viability at 5.3 uM preincubated with GW9662 for 1 hrs followed by compound addition and measured after 48 hrs by SRB assay; assay type: functional, cell-based
[24] = Solubility of compound in water by UV absorbance based analysis; assay type: physicochemical
[25] = Solubility of compound in SGF by UV absorbance based analysis; assay type: physicochemical
[26] = Solubility of compound in SIF by UV absorbance based analysis; assay type: physicochemical
[27] = Metabolic stability in human liver microsomes assessed as half-life at 5 uM measured upto 30 mins in presence of NADPH by LC-MS/MS analysis; assay type: ADME, Microsome
[28] = Metabolic stability in human liver microsomes assessed as intrinsic clearance at 5 uM measured upto 30 mins per mg protein in presence of NADPH by LC-MS/MS analysis; assay type: ADME, Microsome; details: read-out: CLH
[29] = Metabolic stability in human liver assessed as intrinsic clearance at 5 uM measured upto 30 mins in presence of NADPH by LC-MS/MS analysis; assay type: ADME, tissue-based; details: read-out: CLH
[30] = Metabolic stability in human liver microsomes assessed as hepatic extraction ratio at 5 uM measured upto 30 mins in presence of NADPH by LC-MS/MS analysis; assay type: ADME, Microsome; details: read-out: ERH
Cytochrome P450 2C19 = Cytochrome P450 2C19 (Homo sapiens, UniProt P33261); test: Inhibition of CYP2C19 in human liver microsomes using S-mephenytoin substrate at 1 to 10 uM in presence of NADPH by LC-MS/MS analysis; assay type: ADME, Microsome; details: dose 1-10 µM
Cytochrome P450 1A2 = Cytochrome P450 1A2 (Homo sapiens, UniProt P05177); test: Inhibition of CYP1A2 in human liver microsomes using […] substrate at 1 to 10 uM in presence of NADPH by LC-MS/MS analysis; assay type: ADME, Microsome; details: dose 1-10 µM
[31] = Permeability of compound at 100 uM incubated for 16 hrs by PAMPA-BBB assay; assay type: ADME
[32] = Metabolic stability in mouse liver microsomes assessed as half-life at 5 uM measured upto 30 mins in presence of NADPH by LC-MS/MS analysis; assay type: ADME, Microsome
[33] = Metabolic stability in mouse liver microsomes assessed as intrinsic clearance at 5 uM measured upto 30 mins per mg protein in presence of NADPH by LC-MS/MS analysis; assay type: ADME, Microsome; details: read-out: CLH
[34] = Metabolic stability in mouse liver assessed as intrinsic clearance at 5 uM measured upto 30 mins in presence of NADPH by LC-MS/MS analysis; assay type: ADME, tissue-based; details: read-out: CLH
[35] = Metabolic stability in mouse liver microsomes assessed as hepatic extraction ratio at 5 uM measured upto 30 mins in presence of NADPH by LC-MS/MS analysis; assay type: ADME, Microsome; details: read-out: ERH
MCF7 [36] = test: Induction of apoptosis in human MCF7 cells assessed as viable cells at 4.4 uM incubated for 24 hrs by Annexin V-FITC/PI staining based flow cytometric analysis (reference value: 88.20 %); assay type: functional; details: read-out: Activity
MCF7 [37] = test: Induction of apoptosis in human MCF7 cells assessed as early apoptotic cells at 4.4 uM incubated for 24 hrs by Annexin V-FITC/PI staining based flow cytometric analysis (reference value: 2.93 %); assay type: functional
MCF7 [38] = test: Induction of apoptosis in human MCF7 cells assessed as late apoptotic cells at 4.4 uM incubated for 24 hrs by Annexin V-FITC/PI staining based flow cytometric analysis (reference value: 4.85 %); assay type: functional
MCF7 [39] = test: Induction of apoptosis in human MCF7 cells assessed as necrotic cells at 4.4 uM incubated for 24 hrs by Annexin V-FITC/PI staining based flow cytometric analysis (reference value: 4.02 %); assay type: functional
MCF7 [40] = test: Induction of ROS production in human MCF7 cells assessed as DCFDA intensity at 4.4 uM incubated for 24 hrs by flow cytometric analysis (reference value: 0.95 %); assay type: functional
MCF7 [41] = test: Induction of mitochondrial membrane loss in human MCF7 cells assessed as fold change at 4.4 uM incubated for 24 hrs by Mitotracker dye based flow cytometric analysis relative to control; assay type: functional
MCF7 [42] = test: Cell cycle arrest in human MCF7 cells assessed as accumulation of cells at G1 phase at 4.4 uM incubated for 24 hrs by PI staining based flow cytometric analysis (reference value: 63.9 %); assay type: functional
MCF7 [43] = test: Cell cycle arrest in human MCF7 cells assessed as accumulation of cells at S phase at 4.4 uM incubated for 24 hrs by PI staining based flow cytometric analysis (reference value: 22.93 %); assay type: functional
MCF7 [44] = test: Cell cycle arrest in human MCF7 cells assessed as accumulation of cells at G2/M phase at 4.4 uM incubated for 24 hrs by PI staining based flow cytometric analysis (reference value: 13.7 %); assay type: functional
MCF7 [45] = test: Anticancer activity against human MCF7 cells assessed as reduction in cell viability at 4.4 uM incubated for 48 hrs by SRB assay relative to control; assay type: functional
MCF7 [46] = test: Anticancer activity against human MCF7 cells assessed as inhibition of cell growth at 4.4 uM preincubated with SR144528 for 1 hrs followed by compound addition and measured after 48 hrs by SRB assay relative to control; assay type: functional
MCF7 [47] = test: Anticancer activity against human MCF7 cells assessed as inhibition of cell growth at 4.4 uM preincubated with LY320135 for 1 hrs followed by compound addition and measured after 48 hrs by SRB assay; assay type: functional, cell-based
MCF7 [48] = test: Anticancer activity against human MCF7 cells assessed as inhibition of cell growth at 4.4 uM preincubated with ML-193 for 1 hrs followed by compound addition and measured after 48 hrs by SRB assay; assay type: functional, cell-based
MCF7 [49] = test: Anticancer activity against human MCF7 cells assessed as inhibition of cell growth at 4.4 uM preincubated with capsazepine for 1 hrs followed by compound addition and measured after 48 hrs by SRB assay; assay type: functional, cell-based
MCF7 [50] = test: Anticancer activity against human MCF7 cells assessed as inhibition of cell growth at 4.4 uM preincubated with GW9662 for 1 hrs followed by compound addition and measured after 48 hrs by SRB assay; assay type: functional, cell-based

Cytochrome P450 1A2, sequence (P05177 whole entry): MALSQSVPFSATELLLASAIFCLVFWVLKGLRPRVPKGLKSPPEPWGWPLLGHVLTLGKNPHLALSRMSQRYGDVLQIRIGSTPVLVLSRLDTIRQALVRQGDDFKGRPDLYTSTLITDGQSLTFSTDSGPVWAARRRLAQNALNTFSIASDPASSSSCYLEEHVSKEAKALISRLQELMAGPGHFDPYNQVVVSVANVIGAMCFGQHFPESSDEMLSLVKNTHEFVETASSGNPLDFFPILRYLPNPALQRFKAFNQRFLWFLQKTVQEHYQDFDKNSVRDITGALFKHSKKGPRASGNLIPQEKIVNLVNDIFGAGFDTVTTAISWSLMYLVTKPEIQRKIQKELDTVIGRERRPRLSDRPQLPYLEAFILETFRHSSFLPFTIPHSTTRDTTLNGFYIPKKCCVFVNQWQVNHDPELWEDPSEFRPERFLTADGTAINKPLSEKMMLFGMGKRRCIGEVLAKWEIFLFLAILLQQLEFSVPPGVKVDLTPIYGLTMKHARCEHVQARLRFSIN
Cytochrome P450 2C19, sequence (P33261 whole entry): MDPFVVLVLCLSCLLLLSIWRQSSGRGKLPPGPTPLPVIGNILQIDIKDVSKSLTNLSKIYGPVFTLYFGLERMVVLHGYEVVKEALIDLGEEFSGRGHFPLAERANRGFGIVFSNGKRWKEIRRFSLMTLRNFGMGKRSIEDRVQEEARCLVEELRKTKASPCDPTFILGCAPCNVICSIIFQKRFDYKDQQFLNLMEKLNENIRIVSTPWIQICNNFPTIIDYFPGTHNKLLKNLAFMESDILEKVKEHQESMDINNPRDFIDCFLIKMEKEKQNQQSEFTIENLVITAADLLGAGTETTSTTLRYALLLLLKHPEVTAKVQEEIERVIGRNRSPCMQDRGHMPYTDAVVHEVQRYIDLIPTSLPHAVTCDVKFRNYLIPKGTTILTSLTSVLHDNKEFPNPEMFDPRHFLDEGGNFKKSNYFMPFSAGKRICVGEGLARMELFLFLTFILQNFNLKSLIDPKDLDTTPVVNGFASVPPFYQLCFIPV

| Structure (SMILES) | inhibition at 20 µM (HCT-116 [1]) [%] | inhibition at 20 µM (MCF7 [2]) [%] | IC50 (HCT-116 [3]) [µM] | IC50 (MCF7 [4]) [µM] | IC50 at 48 h [5] [µM] | selectivity ratio [6] | selectivity ratio [7] | inhibition (MCF7 [12]) | solubility [24] [µg/mL] | solubility [25] [µg/mL] | solubility [26] [µg/mL] | half-life at 5 µM [27] [min] | microsomal CLint at 5 µM [28] [µL/min/mg] | CLint scaled at 5 µM [29] [mL/min/kg] | hepatic extraction ratio at 0.5 h, 5 µM [30] | inhibition (INH) (Cytochrome P450 2C19) | inhibition (INH) (Cytochrome P450 1A2) | permeability [31] | half-life at 5 µM [32] [min] | microsomal CLint at 5 µM [33] [µL/min/mg] | further results |
| --- | --- | --- | --- | --- | --- | --- | --- | --- | --- | --- | --- | --- | --- | --- | --- | --- | --- | --- | --- | --- | --- |
| C=C(C)[C@@H]1CCC(C)=C[C@H]1c1c(O)cc(CCCCC)c2c1OCN(CCCC)C2 | 82.6 | 85.3 | 4.2 | 5.3 | 37.1 | 8.8 | 7 | Active | 80 (≈ 194 µM) | > 1500 | 80 (≈ 194 µM) | 32 | 44 | 51 | 0.71 | Active | Active | Permeable | 31 | 46 | viability at 5.3 µM (MCF7 [8]): 66.1%; Activity (MCF7 [9]): 8.93%; Activity (MCF7 [10]): 15.07%; Activity (MCF7 [11]): 9.86%; Activity (MCF7 [13]): 12.05%; fold change (FC) (MCF7 [14]): 4.3; Activity (MCF7 [15]): 75.72%; Activity (MCF7 [16]): 15.48%; Activity (MCF7 [17]): 8.8%; Activity (MCF7 [18]): 46.45%; Activity (MCF7 [19]): Active; Activity (MCF7 [20]): Active; Activity (MCF7 [21]): Active; Activity (MCF7 [22]): Active; Activity (MCF7 [23]): Active; CLint scaled at 5 µM [34]: 182 mL/min/kg; hepatic extraction ratio at 0.5 h, 5 µM [35]: 0.67 |
| C=C(C)[C@@H]1CCC(C)=C[C@H]1c1c(O)cc(CCCCC)c2c1OCN(C1CCC1)C2 | 63.4 | 84.9 | 8.6 | 4.4 | 28.1 | 3.2 | 6.4 | Active | 40 (≈ 97.7 µM) | > 1500 | > 1500 | 18 | 77 | 90 | 0.81 | Active | Active | Impermeable | 10 | 146 | viability at 4.4 µM (MCF7 [36]): 67.8%; Activity (MCF7 [37]): 7.61%; Activity (MCF7 [38]): 18.39%; Activity (MCF7 [39]): 6.2%; Activity (MCF7 [40]): 17.87%; fold change (FC) (MCF7 [41]): 5; Activity (MCF7 [42]): 73.84%; Activity (MCF7 [43]): 15.74%; Activity (MCF7 [44]): 10.42%; Activity (MCF7 [45]): 48.65%; inhibition at 4.4 µM (MCF7 [46]): ~17%; Activity (MCF7 [47]): Active; Activity (MCF7 [48]): Active; Activity (MCF7 [49]): Active; Activity (MCF7 [50]): Active; CLint scaled at 5 µM [34]: 580 mL/min/kg; hepatic extraction ratio at 0.5 h, 5 µM [35]: 0.87 |
